These results are taken from patent publication US7655683B2, “Imidazolopyrazole derivatives useful as selective androgen receptor modulators” (Janssen Pharmaceutica NV, priority 2006, dated 2010).

The subject of experiment [1] is ventral prostate and levator ani of immature castrated male Sprague Dawley rats. Kind of experiment: Ventral Prostate and Levator ani Weight in vivo Assay (agonist activity). The arrangement: key to % Prostate Stimulation / % levator ani Stimulation: level 1 agonist active if it produced greater than or equal to 30% stimulation of levator ani or ventral prostate at 30 mg/kg; level 2 agonist active if it produced greater than or equal to 5% but less than 30% stimulation of levator ani or ventral prostate at 30 mg/kg; listed herein as “inactive” as they did not meet the specified criteria defined above. The note with it: once daily for five days, oral, vehicle = 0%, testosterone propionate = 100%, criteria at 30 mg/kg; for change in vivo at 30 mg/kg: Rattus norvegicus, 120 h. How it is done:
Immature (approximately 50 g) castrated male Sprague Dawley rats (Charles River) were treated once daily for five days with test compound ([…], in 30% cyclodextrin or 0.5% methylcellulose vehicle), or with testosterone propionate (administered subcutaneously by injection at the nape of the neck at 5 mg/kg, in a volume of 0.1 mL in sesame oil), or with vehicle (1 mL of 30% cyclodextrin or 0.5% methylcellulose, given orally). On the sixth day, the rats were euthanized by asphyxiation in carbon dioxide. Ventral prostates and levator ani. muscle were removed and their wet weights determined.
Test compound activity was determined as the percent stimulation of tissue weight, with the vehicle-treated control group set to zero percent and the testosterone alone-treated control group set to 100%.

The subject of experiment [2] is ventral prostate and seminal vesicle of immature castrated male Sprague Dawley rats. Kind of experiment: Ventral Prostate and Seminal Vesicle Weight in vivo Assay (antagonist activity, with testosterone propionate). Also noted: key to Inhibition of prostate (non-weight prostate weight, mg) / Inhibition of seminal vesicle (non-weight seminal vesicle weight, mg): level 1 agonist active if it produced greater than or equal to 30% stimulation of levator ani or ventral prostate at 30 mg/kg; level 2 agonist active if it produced greater than or equal to 5% but less than 30% stimulation of levator ani or ventral prostate at 30 mg/kg; listed herein as “inactive” as they did not meet the specified criteria defined above. The settings on record: test compound oral plus testosterone propionate 2 mg/kg s.c., five days, criteria at 30 mg/kg; for inhibition in vivo at 30 mg/kg: Rattus norvegicus, 120 h. How it is done:
Immature (approximately 50 g) castrated male Sprague Dawley rats (Charles River) were treated once daily for five days with test compound ([…], in 30% cyclodextrin or 0.5% methylcellulose vehicle) and with testosterone propionate (given subcutaneously by injection at the nape of the neck at 2 mg/kg, in a volume of 0.1 mL in sesame oil). On the sixth day, the rats were euthanized by asphyxiation in carbon dioxide. Ventral prosatates and seminal vesicles were removed and their wet weights determined. Test compound activity was determined as the percent inhibition of testosterone-enhanced tissue weights, with a vehicle-treated control group set to zero percent and a testosterone alone-treated control group set to 100%.

Setting [3] is: seminal vesicle wet weight, read-out: Inhibition of seminal vesicle (non-weight seminal vesicle weight, mg).
Where [4] appears, read: levator ani wet weight, 30 mg/kg.
Where [5] appears, read: ventral prostate wet weight, 30 mg/kg.
[6] abbreviates: levator ani wet weight, read-out: % levator ani Stimulation.
The mark [7] stands for this setting: ventral prostate wet weight, read-out: % Prostate Stimulation.
[8] abbreviates: ventral prostate wet weight, read-out: Inhibition of prostate (non-weight prostate weight, mg).

Where two headings read alike, the source gives them in different places. Some results are limits rather than exact numbers.

Take `CC12CC=NN1C(N)=N/C2=N\c1ccc(C#N)c(C(F)(F)F)c1` (centres unmarked) [Compound 6, 4-(6-Amino-3a-methyl-3,3a-dihydro-imidazo[1,5-b]pyrazol-4-ylideneamino)-2-trifluoromethyl-benzonitrile]: in experiment [1] (levator ani wet weight), the “% levator ani Stimulation” value is “inactive”. Moreover, the “% Prostate Stimulation” value in experiment [1] (ventral prostate wet weight) is “inactive”. In experiment [2] (setting [3]), the inhibition in vivo at 30 mg/kg fell in the range of 5 to 30%. The “Inhibition of prostate (non-weight prostate weight, mg)” value in experiment [2] (ventral prostate wet weight) is “inactive”.

Consider `C[C@@]12CC(C(F)(F)F)=NN1C(N)=NC2=Nc1ccc(C#N)c(C(F)(F)F)c1.O` [Compound 19, 4-(6-Amino-3aS-methyl-2-trifluoromethyl-3,3a-dihydro-imidazo[1,5-b]pyrazol-4-ylideneamino)-2-trifluoromethyl-benzonitrile-Hydrates], for which, in experiment [1] (setting [4]), the “% levator ani Stimulation” value was “level 1 (level 1 agonist active if it produced greater than or equal to 30% stimulation of levator ani or ventral prostate at 30 mg/kg)”. Also, in experiment [1] (setting [5]), the “% Prostate Stimulation” value was “level 1 (level 1 agonist active if it produced greater than or equal to 30% stimulation of levator ani or ventral prostate at 30 mg/kg)”. Moreover, in experiment [2] (seminal vesicle wet weight), the “Inhibition of seminal vesicle (non-weight seminal vesicle weight, mg)” value was “level 1 (level 1 antagonist active if it produced greater than or equal to 30% inhibition of ventral prostate or seminal vesicle at 30 mg/kg)”. Also, in experiment [2] (ventral prostate wet weight), the “Inhibition of prostate (non-weight prostate weight, mg)” value is given as “level 1 (level 1 antagonist active if it produced greater than or equal to 30% inhibition of ventral prostate or seminal vesicle at 30 mg/kg)”.

Regarding `C[C@]12CC(C(F)(F)F)=NN1C(N)=N/C2=N\c1ccc(C#N)c(C(F)(F)F)c1` [Compound 2, 4-(6-Amino-3aR-methyl-2-trifluoromethyl-3,3a-dihydro-imidazo[1,5-b]pyrazol-4-ylideneamino)-2-trifluoromethyl-benzonitrile], the change in vivo at 30 mg/kg in experiment [1] (setting [6]) and in experiment [1] (setting [7]) was ≥ 30% each time. Also, the inhibition in vivo at 30 mg/kg in experiment [2] (setting [8]) fell in the range of 5 to 30%. Besides, in experiment [2] (seminal vesicle wet weight), the “Inhibition of seminal vesicle (non-weight seminal vesicle weight, mg)” value was “inactive”.

In the case of `C[C@]12CC(C(F)(F)F)=NN1C(NC(=O)C(F)(F)F)=N/C2=N\c1ccc(C#N)c(C(F)(F)F)c1` [Compound 13, N-[4-(4-Cyano-3-trifluoromethyl-phenylimino)-3aR-methyl-2-trifluoromethyl-3a,4-dihydro-3H-imidazo[1,5-b]pyrazol-6-yl]-2,2,2-trifluoro-acetamide], the change in vivo at 30 mg/kg in experiment [1] (setting [6]) and in experiment [1] (setting [7]) was ≥ 30% in each case. For the same compound, the inhibition in vivo at 30 mg/kg in experiment [2] (setting [3]) is 5 to 30%; in experiment [2] (setting [8]), ≥ 30%.

Take `CCOC(=O)C1=NN2C(N)=N/C(=N\c3ccc(C#N)c(C(F)(F)F)c3)C2(C)C1` (centres unmarked) [Compound 7, 6-Amino-4-(4-cyano-3-trifluoromethyl-phenylimino)-3a-methyl-3a,4-dihydro-3H-imidazo[1,5-b]pyrazole-2-carboxylic acid ethyl ester]: the change in vivo at 30 mg/kg in experiment [1] (setting [6]) and in experiment [1] (setting [7]) was 5 to 30% in each case. Further, in experiment [2] (setting [3]), the inhibition in vivo at 30 mg/kg was 5 to 30%. The “Inhibition of prostate (non-weight prostate weight, mg)” value in experiment [2] (ventral prostate wet weight) is “inactive”.

`CC12CC(C(F)(F)F)=NN1C(=N)O/C2=N\c1ccc(C#N)c(C(F)(F)F)c1` (centres unmarked) [Compound 15, 4-(6-Imino-3a-methyl-2-trifluoromethyl-3,3a-dihydro-pyrazolo[1,5-c]oxazol-4-ylideneamino)-2-trifluoromethyl-benzonitrile]: the results for the change in vivo at 30 mg/kg in experiment [1] (setting [6]) and in experiment [1] (setting [7]) were ≥ 30% and 5 to 30%, respectively. For the same compound, the inhibition in vivo at 30 mg/kg in experiment [2] (setting [3]) and in experiment [2] (setting [8]) was 5 to 30% each time.

Regarding `C[C@]12CC(C(F)(F)F)=NN1C(N)=NC2=Nc1ccc(C#N)c(C(F)(F)F)c1.O` [Compound 16, 4-(6-Amino-3aR-methyl-2-trifluoromethyl-3,3a-dihydro-imidazo[1,5-b]pyrazol-4-ylideneamino)-2-trifluoromethyl-benzonitrile-Hydrates], the “% levator ani Stimulation” value in experiment [1] (setting [4]) is “level 1 (level 1 agonist active if it produced greater than or equal to 30% stimulation of levator ani or ventral prostate at 30 mg/kg)”. Moreover, the “% Prostate Stimulation” value in experiment [1] (setting [5]) is recorded as “level 1 (level 1 agonist active if it produced greater than or equal to 30% stimulation of levator ani or ventral prostate at 30 mg/kg)”. Also, the “Inhibition of seminal vesicle (non-weight seminal vesicle weight, mg)” value in experiment [2] (seminal vesicle wet weight) is given as “level 2 (level 2 antagonist active if it produced greater than or equal to 5% but less than 30% inhibition of ventral prostate or seminal vesicle at 30 mg/kg)”. For the same compound, the “Inhibition of prostate (non-weight prostate weight, mg)” value in experiment [2] (ventral prostate wet weight) is given as “level 2 (level 2 antagonist active if it produced greater than or equal to 5% but less than 30% inhibition of ventral prostate or seminal vesicle at 30 mg/kg)”.

For `C[C@@]12CC(C(F)(F)F)=NN1C(N)=N/C2=N\c1ccc(C#N)c(C(F)(F)F)c1` [Compound 3, 4-(6-Amino-3aS-methyl-2-trifluoromethyl-3,3a-dihydro-imidazo[1,5-b]pyrazol-4-ylideneamino)-2-trifluoromethyl-benzonitrile], the change in vivo at 30 mg/kg in experiment [1] (setting [6]) was ≥ 30%; in experiment [1] (setting [7]), 5 to 30%. Moreover, the results for the inhibition in vivo at 30 mg/kg in experiment [2] (setting [3]) and in experiment [2] (setting [8]) were 5 to 30% and ≥ 30%, respectively.
